Patent US20260284086A1, “PHARMACEUTICAL COMPOSITION FOR TREATMENT OF INFLAMMATORY BOWEL DISEASE” (EA PHARMA CO., LTD., priority 2023, published 2026)
Values after ≈ are worked out from the molar mass of the structure shown. Like-named read-outs stand apart in the source and are kept apart here.

How the values were obtained:
[1] = Repeated Administration Study 1: L-SEDDS 400 mg once daily for 10 days, plasma Compound (2); assay type: in vivo, human
Protocol: (§1) This clinical trial was a single-center, randomized, double-blind, placebo-controlled, single and multiple ascending dose study with the primary objective of evaluating the safety and tolerability of Compound (1) when orally administered to healthy adult males.
(§2) Screening tests were conducted within 28 to 3 days before administration of the investigational drug to confirm the eligibility of the subjects, and the subjects were hospitalized 2 days before administration. After hospitalization, tests were conducted from 2 days before administration to the day of administration to confirm that there were no problems with eligibility, and then Compound (1) or placebo was randomly assigned. The subjects in each cohort consisted of 8 people, of which 6 were assigned to Compound (1) and 2 were assigned to placebo, and they were administered the drug.
(§3) Day 8, when repeated administration was started, corresponds to administration day 1 (Day 1), and day 17 corresponds to administration day 10 (Day 10). […]
(§4) The plasma concentration of Compound (2) was measured using a validated measurement method. Specifically, plasma was separated from collected blood and processed, and then the plasma concentration was measured by an LC/MS/MS apparatus.
(§5) For twice-daily administration of C-SEDDS, blood was further collected at 13, 14, 14.5, and 16 hours later to quantify Compound (2).

[2] = Phase 1 single-dose administration study: plasma concentration of Compound (2) by LC/MS/MS after oral Compound (1); assay type: in vivo, human; conditions: Compound (1) 200 mg C-SEDDS single oral dose
[3] = PK Simulation Analysis 2 by Superposition Method (200 mg twice daily); design: species or system human; conditions: Day 10 of repeated administration
Protocol: The plasma concentration of Compound (2) on day 10 of repeated administration at 200 mg twice daily (every 12 hours) was predicted using the superposition method implemented in the Nonparametric Superposition (NPS) tool of the analysis software Phoenix WinNonlin, applying the results of once-daily administration at 200 mg (Certara L.P.) (FIG. 6).

[4] = PK Simulation Analysis 1 by Superposition Method (Phoenix WinNonlin NPS); design: species or system human; conditions: Compound (1) 50 mg; 2.5 times the 20 mg prediction
From the text: The plasma concentration profile of Compound (2) on day 10 of repeated administration was predicted using the superposition method implemented in the Nonparametric Superposition (NPS) tool of the analysis software Phoenix WinNonlin, applying the single-dose results (Certara L.P.) (FIG. 4).

[5] = Repeated Administration Study 2: C-SEDDS 200 mg twice daily for 10 days, plasma Compound (2); assay type: in vivo, human
Protocol: as §1, §2, §3, §4, §5

[6] = target: T1, MAdCAM-1 binding of lymphocytes (CD3-positive CD4-positive cells) (Homo sapiens, UniProt P13612+P26010); assay: Ex vivo integrin inhibitory activity: MAdCAM-1 binding inhibition rate of lymphocytes in plasma (flow cytometry); assay type: cell-based; conditions: for IC90: CD4 positive
T1 construct: endogenous in cells; host or cells: CD3-positive CD4-positive lymphocytes in heparinized whole blood of dosed healthy adult males
T1 sequence (P13612 34-1032): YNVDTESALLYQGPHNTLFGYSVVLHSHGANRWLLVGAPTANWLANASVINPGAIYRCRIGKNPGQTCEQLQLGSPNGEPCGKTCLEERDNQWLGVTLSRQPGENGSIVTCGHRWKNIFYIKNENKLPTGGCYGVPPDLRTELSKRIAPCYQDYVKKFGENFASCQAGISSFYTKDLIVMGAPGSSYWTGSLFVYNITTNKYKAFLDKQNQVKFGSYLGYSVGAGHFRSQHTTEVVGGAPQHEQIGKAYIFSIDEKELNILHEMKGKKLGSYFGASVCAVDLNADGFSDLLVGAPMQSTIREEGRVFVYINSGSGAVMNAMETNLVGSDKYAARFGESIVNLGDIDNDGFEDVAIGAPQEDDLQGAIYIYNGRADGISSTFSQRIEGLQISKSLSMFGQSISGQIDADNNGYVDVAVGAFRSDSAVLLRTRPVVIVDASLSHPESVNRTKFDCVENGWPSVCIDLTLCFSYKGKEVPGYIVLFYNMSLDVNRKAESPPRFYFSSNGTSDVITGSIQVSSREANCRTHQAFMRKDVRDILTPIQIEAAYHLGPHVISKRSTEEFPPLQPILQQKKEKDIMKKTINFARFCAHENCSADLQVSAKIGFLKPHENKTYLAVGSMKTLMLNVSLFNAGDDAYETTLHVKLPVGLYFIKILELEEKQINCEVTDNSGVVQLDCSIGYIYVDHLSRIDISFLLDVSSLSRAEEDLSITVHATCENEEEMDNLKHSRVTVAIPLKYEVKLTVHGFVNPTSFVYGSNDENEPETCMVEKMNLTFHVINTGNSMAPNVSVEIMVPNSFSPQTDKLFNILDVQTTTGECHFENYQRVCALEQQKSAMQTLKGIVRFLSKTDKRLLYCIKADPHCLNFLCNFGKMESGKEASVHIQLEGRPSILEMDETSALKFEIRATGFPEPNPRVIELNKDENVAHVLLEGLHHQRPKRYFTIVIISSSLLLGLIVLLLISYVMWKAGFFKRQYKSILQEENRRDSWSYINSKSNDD
T1 sequence (P26010 20-798): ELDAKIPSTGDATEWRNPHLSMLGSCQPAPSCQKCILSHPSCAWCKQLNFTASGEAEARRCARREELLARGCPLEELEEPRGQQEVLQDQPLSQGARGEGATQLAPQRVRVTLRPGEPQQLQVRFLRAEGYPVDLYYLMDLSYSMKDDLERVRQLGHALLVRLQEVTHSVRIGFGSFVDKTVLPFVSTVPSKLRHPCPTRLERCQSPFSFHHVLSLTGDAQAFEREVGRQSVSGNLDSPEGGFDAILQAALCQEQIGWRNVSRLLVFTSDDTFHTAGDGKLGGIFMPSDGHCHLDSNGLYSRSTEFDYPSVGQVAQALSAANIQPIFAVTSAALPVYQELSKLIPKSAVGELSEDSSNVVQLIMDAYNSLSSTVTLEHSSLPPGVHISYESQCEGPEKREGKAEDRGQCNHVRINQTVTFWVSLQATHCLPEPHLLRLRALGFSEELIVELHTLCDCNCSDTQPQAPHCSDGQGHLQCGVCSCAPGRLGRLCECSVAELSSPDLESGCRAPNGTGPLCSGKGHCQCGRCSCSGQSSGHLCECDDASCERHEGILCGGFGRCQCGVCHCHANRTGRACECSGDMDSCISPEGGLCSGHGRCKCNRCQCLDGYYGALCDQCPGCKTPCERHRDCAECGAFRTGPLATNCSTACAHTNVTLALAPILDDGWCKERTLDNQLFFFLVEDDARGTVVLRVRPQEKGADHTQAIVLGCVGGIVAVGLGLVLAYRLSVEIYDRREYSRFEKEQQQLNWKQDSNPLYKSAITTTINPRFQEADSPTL
Protocol: [MAdCAM-1 Binding Inhibition Rate (PD) of Lymphocytes in Plasma and IC90, IC50]
The MAdCAM-1 binding rate of lymphocytes in plasma was measured using a validated measurement method using the obtained blood samples, and the MAdCAM-1 binding inhibition rate of lymphocytes in plasma was calculated using Excel. Specifically, 5 μL of an 80 mM MnCl2 solution was added to 90 μL of heparinized blood and incubated at room temperature for 10 minutes. A volume of 5 μL of 200 μg/mL recombinant human MAdCAM-1/Fc (R&D Systems) was added to make a total volume of 100 μL, and the mixture was incubated at room temperature for 30 minutes. Subsequently, 1900 μL of BD Phosflow Lyse/Fix Buffer 5× (BD Biosciences) was added, and hemolysis and fixation were performed at 37° C. for 10 minutes. After centrifugation for 5 minutes, the supernatant was removed, and 2000 μL of RPMI-1640 medium supplemented with 10% inactivated fetal bovine serum (hereinafter referred to as medium) was added. After centrifugation for 5 minutes, the supernatant was removed and washed. After washing again with the medium, 50 μL of Brilliant Stain Buffer (BD Biosciences), 1.25 μL of MAdCAM-1 FITC (Hycult Biotech), 5 μL of CD4 PE (BD Biosciences), 2.5 μL of CD45RO APC (UCHL1) (BioLegend), 5 μL of CD3 BV421 (SK7) (BioLegend), and 2.5 μL of CD45 BV510 (HI30) (BioLegend) were added, and the mixture was incubated for 30 minutes. After washing with Stain Buffer (BSA) (BD Biosciences), the percentage of MAdCAM-1-positive cells among CD3-positive CD4-positive cells was measured using flow cytometry.
The percentage of MAdCAM-1-positive cells among CD3-positive CD4-positive cells was calculated by subtracting each measured value from the measured value when MAdCAM-1/Fc was not added as a control. The percentage of MAdCAM-1-positive cells among CD3-positive CD4-positive cells before administration of Compound (1) or placebo was set as 0% inhibition, and the MAdCAM-1 binding inhibition rate at each blood collection time point was obtained. Furthermore, the concentration IC50 that causes 50% binding inhibition and the concentration IC90 that causes 90% binding inhibition were calculated.
The MAdCAM-1 binding inhibition rate (PD) of lymphocytes in plasma was evaluated using collected blood, and the correlation with the plasma concentration (PK) of Compound (2) was plotted (FIG. 5).

increase of plasma concentration (trough value) after 24 hours, Day 10 of repeated vs single-dose administration ([1]; Compound (1) 400 mg L-SEDDS once daily): more than threefold
plasma concentration of Compound (2) ([2]; 0.5 h post-dose): Below quantitation limit
plasma concentration of Compound (2) ([2]; 1 h post-dose): Below quantitation limit
predicted trough value (200 mg twice daily) relative to measured trough value (400 mg once daily) [3]: about twice
estimated Cmax on the 10th day of repeated administration [4]: 3.63 ng/mL
increase of plasma concentration (trough value) 12 hours after the second dose on Day 10 of repeated vs single-dose administration ([5]; Compound (1) 200 mg C-SEDDS twice daily): about eightfold
IC90 ([6]; ex vivo, blood of healthy adult males given Compound (1), read-out: IC90 (plasma concentration that causes 90% MAdCAM-1 binding inhibition)): 6.9 ng/mL (≈ 9.88 nM)
IC90 ([6]; read-out: IC90): 6.9 ng/mL (≈ 9.88 nM)
IC50 ([6]; ex vivo, blood of healthy adult males given Compound (1), read-out: IC50 (plasma concentration that causes 50% MAdCAM-1 binding inhibition) (converted)): 2.72 nM
correlation of plasma concentration (PK) with MAdCAM-1 binding inhibition rate (PD) ([6]; ex vivo, collected blood, FIG. 5): correlated
Structure (SMILES): Cc1cc(=O)n(-c2ccc(C[C@H](NC(=O)c3cc(F)c(NS(=O)(=O)c4ccc(NC(=O)C(C)(C)C)cc4)cc3F)C(=O)O)cn2)c(=O)n1C [Compound (2)]
trough concentration relative to IC90 ([1]; once-daily administration of L-SEDDS (Compound (1) 400 mg)): maintained above IC90 (6.9 mg/mL) from the second day of administration
trough concentration relative to IC90 ([5]; twice-daily administration of C-SEDDS (Compound (1) 200 mg)): maintained above IC90 (6.9 mg/mL) from the third day of administration
